For orientation: Kd means the concentration at which binding is half-saturated. Higher therefore signals weaker binding.

Non-standard residues stand in square brackets, D forms with d. Residues, ends and D or L forms follow the SMILES beside them. pY = N[C@@H](Cc1ccc(OP(=O)(O)O)cc1)C(=O)O

One experiment addresses T1, c-Src SH2 domain (Homo sapiens, UniProt P12931).
T1 construct: the SH2 domains of two closely-related kinases from the Src subfamily (c-Src and Fyn); made in house
Kind of experiment: Competitive fluorescence polarization, c-Src SH2. Particulars: Table S3 unpaired validation; competition fluorescence polarization; probe FITC-Ahx-GDG-pY-EEISPLLL-NH2 30 nM; [SH2] 123-126 nM; mean. Type of experiment: binding. From the text: (§1) All peptides containing phosphorylated tyrosine, both fluorescently labelled and non-labelled, were produced by SynPeptide (China).
For orientation: Polarisation of emitted light reports the rotation of a fluorescent probe.
In turn, “Ac-QKEAHH-pY-VNWRTG-NH2 [Syn-G2-1 (synthetic)]” registered a Kd of 9660 nM.

The experiment is the same for the next values; noted with them: Table S5 single-amino-acid substitution pairs; competition fluorescence polarization; probe FITC-Ahx-GDG-pY-EEISPLLL-NH2 30 nM; [SH2] 240 nM; mean.
`CC[C@H](C)[C@H](NC(=O)[C@H](CC(C)C)NC(=O)[C@H](CO)NC(=O)[C@H](Cc1ccc(OP(=O)(O)O)cc1)NC(=O)[C@H](CCCNC(=N)N)NC(=O)[C@H](CCCNC(=N)N)NC(=O)[C@H](CCC(N)=O)NC(=O)[C@H](CC(=O)O)NC(=O)[C@H](CO)NC(=O)[C@H](CCC(N)=O)NC(C)=O)C(=O)N[C@@H](CC(=O)O)C(=O)N[C@@H](CCCNC(=N)N)C(=O)NCC(N)=O` [CLIP2 pY972] (Ac-QSDQRR[pY]SLIDRG-NH2) showed a Kd of 3980 nM.
`CC[C@H](C)[C@H](NC(=O)CNC(=O)[C@H](CCC(=O)O)NC(=O)[C@@H](NC(=O)[C@H](CCC(N)=O)NC(C)=O)C(C)C)C(=O)NCC(=O)N[C@@H](Cc1ccc(OP(=O)(O)O)cc1)C(=O)N[C@@H](CC(=O)O)C(=O)N[C@@H](Cc1ccccc1)C(=O)N[C@H](C(=O)N1CCC[C@H]1C(=O)N[C@H](C(=O)NCC(N)=O)[C@@H](C)O)[C@@H](C)CC` [CBS pY308] (Ac-QVEGIG[pY]DFIPTG-NH2) displayed an equilibrium dissociation constant (Kd) of 2730 nM.
On the same count and under the same terms, to `CC(=O)N[C@@H](CCC(N)=O)C(=O)N[C@@H](CO)C(=O)N[C@@H](CC(C)C)C(=O)N[C@@H](CCC(=O)O)C(=O)N[C@@H](CCCCN)C(=O)N[C@@H](CO)C(=O)N[C@@H](Cc1ccc(OP(=O)(O)O)cc1)C(=O)N[C@@H](CCC(=O)O)C(=O)N[C@@H](CC(C)C)C(=O)N[C@@H](CC(C)C)C(=O)N[C@@H](CC(=O)O)C(=O)NCC(=O)NCC(N)=O` [ACTB pY240 P243L] (Ac-QSLEKS[pY]ELLDGG-NH2) belongs 6090 nM; to `CC(=O)N[C@@H](CCC(N)=O)C(=O)N[C@@H](CO)C(=O)N[C@@H](CC(C)C)C(=O)N[C@@H](CCC(=O)O)C(=O)N[C@@H](CCCCN)C(=O)N[C@@H](CO)C(=O)N[C@@H](Cc1ccc(OP(=O)(O)O)cc1)C(=O)N[C@@H](CCC(=O)O)C(=O)N[C@@H](CC(C)C)C(=O)N1CCC[C@H]1C(=O)N[C@@H](CC(=O)O)C(=O)NCC(=O)NCC(N)=O` [ACTB pY240] (Ac-QSLEKS[pY]ELPDGG-NH2), 9040 nM.
Same read-out and setting: to `CC[C@H](C)[C@H](NC(=O)CNC(=O)[C@H](CCC(=O)O)NC(=O)[C@@H](NC(=O)[C@H](CCC(N)=O)NC(C)=O)C(C)C)C(=O)N[C@@H](CO)C(=O)N[C@@H](Cc1ccc(OP(=O)(O)O)cc1)C(=O)N[C@@H](CC(=O)O)C(=O)N[C@@H](Cc1ccccc1)C(=O)N[C@H](C(=O)N1CCC[C@H]1C(=O)N[C@H](C(=O)NCC(N)=O)[C@@H](C)O)[C@@H](C)CC` [CBS pY308 G307S] (Ac-QVEGIS[pY]DFIPTG-NH2) belongs 4280 nM; to `CC[C@H](C)[C@H](NC(=O)[C@@H]1CCCN1C(=O)[C@H](CCC(N)=O)NC(C)=O)C(=O)N[C@@H](Cc1ccccc1)C(=O)N[C@@H](CCC(=O)O)C(=O)NCC(=O)N[C@@H](Cc1ccc(OP(=O)(O)O)cc1)C(=O)N[C@@H](C)C(=O)N[C@@H](CC(C)C)C(=O)N1CCC[C@H]1C(=O)N[C@@H](Cc1c[nH]cn1)C(=O)N[C@@H](C)C(=O)NCC(N)=O` [ACTA1 pY171] (Ac-QPIFEG[pY]ALPHAG-NH2), 4670 nM.

The next experiment deals with T2, Grb2 SH2 domain (Homo sapiens, UniProt P62993).
T2 construct: one distantly-related SH2 domain from the adapter protein Grb2; His6-SUMO (N); mCh (only in the data set names 'Grb2mCh'; possibly an mCherry fusion, never explained); made in house
T2 sequence (P62993 60-152 limits assumed): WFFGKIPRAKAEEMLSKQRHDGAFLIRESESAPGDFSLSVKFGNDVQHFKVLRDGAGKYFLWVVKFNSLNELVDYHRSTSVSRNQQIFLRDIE
The experiment can be described thus: Competitive fluorescence polarization, Grb2 SH2. Type of experiment: binding. Conditions: Table S3 unpaired validation; competition fluorescence polarization; probe FITC-Ahx-FDDPS(pY)VNVQN 30 nM; [SH2] 123 nM; mean.
From the text: as §1
Regarding “Ac-QIEVGT-pY-QNPHNG-NH2 [Syn-G2-7 (synthetic)]”, the Kd was determined as 3240 nM.
The same measure, in the same setting: to “Ac-QHNIHS-pY-INIPPG-NH2 [Syn-G2-2 (synthetic)]” belongs 3.99 nM; to “Ac-QKEAHH-pY-VNWRTG-NH2 [Syn-G2-1 (synthetic)]”, 31.8 nM; to “Ac-QHRLNN-pY-ENNRLG-NH2 [Syn-G2-6 (synthetic)]”, 2250 nM.
In the case of “Ac-QLGHQR-pY-HNITPG-NH2 [Syn-G2-5 (synthetic)]”, the Kd was determined as 487 nM.

For another experiment, the target named is T3, Fyn SH2 domain (Homo sapiens, UniProt P06241).
T3 construct: The human SH2 domains from Fyn (142–248), Lyn (121–228); His6-SUMO (N, cleaved yes); made in house; host or cells: E. coli C43(DE3) with BirA helper plasmid
T3 sequence (P06241 142-248): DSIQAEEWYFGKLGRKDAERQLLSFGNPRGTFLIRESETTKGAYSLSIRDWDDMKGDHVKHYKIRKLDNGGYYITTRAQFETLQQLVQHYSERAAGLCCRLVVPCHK
Kind of experiment: Competitive fluorescence polarization, Fyn SH2. Type of experiment: binding. Particulars: Table S3 unpaired validation; competition fluorescence polarization; probe FITC-Ahx-GDG-pY-EEISPLLL-NH2 0.4 nM; [SH2] 4.12 nM; mean. The procedure:
Next, the protein was eluted with elution buffer (50 mM Tris, pH 7.5, 50 mM NaCl, 250 mM imidazole, 10% glycerol) directly onto a 5 mL HiTrap Q HP anion exchange column (Cytiva). […] The biotinylated SH2 domain was then collected in a flowthrough after running the cleavage reaction over a HisTrap HP column.
“Ac-QMEKHV-pY-ESVTQG-NH2 [Syn-F-2 (synthetic)]” returned a Kd of 18.3 nM.
“Ac-QLHVHP-pY-EKVEDG-NH2 [Syn-F-1 (synthetic)]” registered a Kd of 30.2 nM.

Values taken from doi:10.1101/2024.12.23.630085, “Accurate sequence-to-affinity models for SH2 domains from multi-round peptide binding assays coupled with free-energy regression” (bioRxiv, 2025).
